Laboratory results as given in PubChem BioAssay (NCI).
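Method: 48-hour compound exposure of cells in 96-well plates, five concentrations, linear interpolation of endpoints. GI50 marks 50% less growth. TGI is the concentration that stops growth completely.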

Legend:
Experiment in all cases: NCI anticancer screen, dose series, 48 h
HCT-15 colon = tested on: HCT-15 colon
MDA-MB-435 = tested on: MDA-MB-435
TK-10 renal = tested on: TK-10 renal
BT-549 breast = tested on: BT-549 breast
HOP-92 NSCLC = tested on: HOP-92 NSCLC
KM12 colon = tested on: KM12 colon
K-562 leukemia = tested on: K-562 leukemia
OVCAR-8 ovarian = tested on: OVCAR-8 ovarian
SK-MEL-28 melanoma = tested on: SK-MEL-28 melanoma
SR leukemia = tested on: SR leukemia
EKVX NSCLC = tested on: EKVX NSCLC
RPMI-8226 leukemia = tested on: RPMI-8226 leukemia
COLO 205 colon = tested on: COLO 205 colon
HOP-62 NSCLC = tested on: HOP-62 NSCLC
UACC-62 melanoma = tested on: UACC-62 melanoma
SK-OV-3 ovarian = tested on: SK-OV-3 ovarian
MCF7 breast = tested on: MCF7 breast
IGROV1 ovarian = tested on: IGROV1 ovarian
CAKI-1 renal = tested on: CAKI-1 renal
M14 melanoma = tested on: M14 melanoma
786-0 renal = tested on: 786-0 renal
U251 CNS = tested on: U251 CNS
ACHN renal = tested on: ACHN renal
RXF 393 renal = tested on: RXF 393 renal
SF-295 CNS = tested on: SF-295 CNS
SF-268 CNS = tested on: SF-268 CNS
PC-3 prostate = tested on: PC-3 prostate
SK-MEL-2 melanoma = tested on: SK-MEL-2 melanoma
HL-60(TB) leukemia = tested on: HL-60(TB) leukemia
SW-620 colon = tested on: SW-620 colon
UACC-257 melanoma = tested on: UACC-257 melanoma
OVCAR-4 ovarian = tested on: OVCAR-4 ovarian
NCI/ADR-RES ovarian = tested on: NCI/ADR-RES ovarian
LOX IMVI melanoma = tested on: LOX IMVI melanoma
SNB-19 CNS = tested on: SNB-19 CNS
NCI-H226 lung = tested on: NCI-H226 lung
UO-31 renal = tested on: UO-31 renal
NCI-H23 lung = tested on: NCI-H23 lung
MDA-MB-231 breast = tested on: MDA-MB-231 breast
SNB-75 CNS = tested on: SNB-75 CNS
A498 renal = tested on: A498 renal
MOLT-4 leukemia = tested on: MOLT-4 leukemia
SK-MEL-5 melanoma = tested on: SK-MEL-5 melanoma
HS 578T breast = tested on: HS 578T breast
HCC-2998 colon = tested on: HCC-2998 colon
HCT-116 colon = tested on: HCT-116 colon
CCRF-CEM leukemia = tested on: CCRF-CEM leukemia
HT29 colon = tested on: HT29 colon
SF-539 CNS = tested on: SF-539 CNS
OVCAR-3 ovarian = tested on: OVCAR-3 ovarian
OVCAR-5 ovarian = tested on: OVCAR-5 ovarian
SN12C renal = tested on: SN12C renal
DU-145 prostate = tested on: DU-145 prostate
MALME-3M melanoma = tested on: MALME-3M melanoma
NCI-H460 lung = tested on: NCI-H460 lung
A549 NSCLC = tested on: A549 NSCLC

In the case of `COc1ccc(NC(=S)N/N=C/c2c(C)n(C)n(-c3ccccc3)c2=O)cc1`, the TGI (HCT-15 colon) is reported as > 100 µM, the TGI (MDA-MB-435) is reported as > 100 µM and the TGI (TK-10 renal) is reported as > 100 µM. The TGI (BT-549 breast) was > 100 µM, the TGI (HOP-92 NSCLC) was 65.4 µM and the TGI (KM12 colon) was > 100 µM. The TGI (K-562 leukemia) was > 100 µM, the TGI (OVCAR-8 ovarian) was 55.7 µM and the TGI (SK-MEL-28 melanoma) was > 100 µM. For the same compound, the TGI (SR leukemia) was > 100 µM, the TGI (EKVX NSCLC) was > 100 µM and the TGI (RPMI-8226 leukemia) was > 100 µM. The TGI (COLO 205 colon) was > 100 µM, the TGI (HOP-62 NSCLC) was 41.7 µM and the TGI (UACC-62 melanoma) was > 100 µM. For the same compound, the TGI (SK-OV-3 ovarian) was 82.6 µM, the TGI (MCF7 breast) was > 100 µM and the TGI (IGROV1 ovarian) was > 100 µM. For the same compound, the TGI (CAKI-1 renal) was 51.8 µM, the TGI (M14 melanoma) was > 100 µM and the TGI (786-0 renal) was 60.4 µM. For the same compound, the TGI (U251 CNS) was 51.7 µM, the TGI (ACHN renal) was > 100 µM and the TGI (RXF 393 renal) was 56.6 µM. For the same compound, the TGI (SF-295 CNS) was > 100 µM, the TGI (SF-268 CNS) was 70.7 µM and the TGI (PC-3 prostate) was > 100 µM. The TGI (SK-MEL-2 melanoma) was > 100 µM, the TGI (HL-60(TB) leukemia) was > 100 µM and the TGI (SW-620 colon) was > 100 µM. The TGI (UACC-257 melanoma) was > 100 µM, the TGI (OVCAR-4 ovarian) was 39.8 µM and the TGI (NCI/ADR-RES ovarian) was > 100 µM. For the same compound, the TGI (LOX IMVI melanoma) was > 100 µM, the TGI (SNB-19 CNS) was 46.2 µM and the TGI (NCI-H226 lung) was > 100 µM. For the same compound, the TGI (UO-31 renal) was > 100 µM, the TGI (NCI-H23 lung) was > 100 µM and the TGI (MDA-MB-231 breast) was 62.6 µM. For the same compound, the TGI (SNB-75 CNS) was 84.3 µM, the TGI (A498 renal) was 49.8 µM and the TGI (MOLT-4 leukemia) was > 100 µM. The TGI (SK-MEL-5 melanoma) was > 100 µM, the TGI (HS 578T breast) was 70.3 µM and the TGI (HCC-2998 colon) was > 100 µM. For the same compound, the TGI (HCT-116 colon) was > 100 µM, the TGI (CCRF-CEM leukemia) was > 100 µM and the TGI (HT29 colon) was > 100 µM. It also gave a TGI (SF-539 CNS) of 59.4 µM.

`O=C1C(=O)c2ccccc2C(O)=C1Cc1ccccc1` was tested, and the TGI (HCT-15 colon) was > 100 µM, the TGI (TK-10 renal) was > 100 µM and the TGI (BT-549 breast) was > 100 µM. The TGI (SK-MEL-28 melanoma) was > 100 µM, the TGI (EKVX NSCLC) was > 100 µM and the TGI (SK-OV-3 ovarian) was > 100 µM. The TGI (OVCAR-3 ovarian) was 79.7 µM, the TGI (M14 melanoma) was > 100 µM and the TGI (786-0 renal) was > 100 µM. For the same compound, the TGI (SF-295 CNS) was > 100 µM, the TGI (PC-3 prostate) was > 100 µM and the TGI (SK-MEL-2 melanoma) was > 100 µM. For the same compound, the TGI (OVCAR-5 ovarian) was > 100 µM, the TGI (UACC-257 melanoma) was > 100 µM and the TGI (OVCAR-4 ovarian) was > 100 µM. The TGI (NCI/ADR-RES ovarian) was > 100 µM, the TGI (UO-31 renal) was > 100 µM and the TGI (NCI-H23 lung) was > 100 µM. For the same compound, the TGI (MDA-MB-231 breast) was > 100 µM, the TGI (A498 renal) was > 100 µM and the TGI (SK-MEL-5 melanoma) was 39 µM. For the same compound, the TGI (HS 578T breast) was > 100 µM, the TGI (HCC-2998 colon) was > 100 µM and the TGI (HCT-116 colon) was > 100 µM. The TGI (HT29 colon) was > 100 µM.

With `COc1cc(C(C)c2ccc3c(ccn3C)c2)cc(OC)c1OC` (stereo not drawn) the GI50 (HCT-15 colon) was 0.0106 µM, the TGI (HCT-15 colon) was > 100 µM and the GI50 (TK-10 renal) was 16.5 µM. It also gave a TGI (TK-10 renal) of 92.6 µM, a GI50 (BT-549 breast) of 0.0231 µM and a TGI (BT-549 breast) of 19.3 µM. For the same compound, the GI50 (HOP-92 NSCLC) was 0.0251 µM, the TGI (HOP-92 NSCLC) was 45.4 µM and the GI50 (KM12 colon) was < 0.01 µM. The TGI (KM12 colon) was 60.2 µM, the GI50 (K-562 leukemia) was < 0.01 µM and the TGI (K-562 leukemia) was > 100 µM. The GI50 (OVCAR-8 ovarian) was 0.0363 µM, the TGI (OVCAR-8 ovarian) was 38.5 µM and the GI50 (SK-MEL-28 melanoma) was 8.09 µM. For the same compound, the TGI (SK-MEL-28 melanoma) was > 100 µM, the GI50 (SR leukemia) was < 0.01 µM and the TGI (SR leukemia) was > 100 µM. For the same compound, the GI50 (EKVX NSCLC) was 0.0674 µM, the TGI (EKVX NSCLC) was > 100 µM and the GI50 (RPMI-8226 leukemia) was 0.0362 µM. For the same compound, the TGI (RPMI-8226 leukemia) was 22.6 µM, the GI50 (COLO 205 colon) was < 0.01 µM and the TGI (COLO 205 colon) was 0.0461 µM. For the same compound, the GI50 (HOP-62 NSCLC) was 0.0385 µM, the TGI (HOP-62 NSCLC) was > 100 µM and the GI50 (SK-OV-3 ovarian) was < 0.01 µM. For the same compound, the TGI (SK-OV-3 ovarian) was 60.7 µM, the GI50 (IGROV1 ovarian) was 0.0291 µM and the TGI (IGROV1 ovarian) was > 100 µM. The GI50 (SN12C renal) was 0.0671 µM, the TGI (SN12C renal) was > 100 µM and the GI50 (DU-145 prostate) was 0.0343 µM. The TGI (DU-145 prostate) was > 100 µM, the GI50 (MALME-3M melanoma) was 11.6 µM and the TGI (MALME-3M melanoma) was 63.3 µM. The GI50 (M14 melanoma) was < 0.01 µM, the TGI (M14 melanoma) was 22 µM and the GI50 (786-0 renal) was 0.0288 µM. For the same compound, the TGI (786-0 renal) was 26.7 µM, the GI50 (U251 CNS) was < 0.01 µM and the TGI (U251 CNS) was 39 µM. For the same compound, the GI50 (ACHN renal) was 0.0172 µM, the TGI (ACHN renal) was > 100 µM and the GI50 (RXF 393 renal) was < 0.01 µM. For the same compound, the TGI (RXF 393 renal) was > 100 µM, the GI50 (SF-295 CNS) was < 0.01 µM and the TGI (SF-295 CNS) was 32.5 µM. For the same compound, the GI50 (NCI-H460 lung) was 0.0117 µM, the TGI (NCI-H460 lung) was > 100 µM and the GI50 (SF-268 CNS) was 0.0393 µM. The TGI (SF-268 CNS) was > 100 µM, the GI50 (PC-3 prostate) was 0.0171 µM and the TGI (PC-3 prostate) was > 100 µM. For the same compound, the GI50 (SK-MEL-2 melanoma) was 0.0984 µM, the TGI (SK-MEL-2 melanoma) was 95.8 µM and the GI50 (OVCAR-5 ovarian) was 0.0559 µM. For the same compound, the TGI (OVCAR-5 ovarian) was > 100 µM, the GI50 (SW-620 colon) was < 0.01 µM and the TGI (SW-620 colon) was > 100 µM. The GI50 (UACC-257 melanoma) was 19.4 µM, the TGI (UACC-257 melanoma) was 77.6 µM and the GI50 (OVCAR-4 ovarian) was 0.414 µM. The TGI (OVCAR-4 ovarian) was > 100 µM, the GI50 (NCI/ADR-RES ovarian) was < 0.01 µM and the TGI (NCI/ADR-RES ovarian) was > 100 µM. The GI50 (A549 NSCLC) was 0.0233 µM, the TGI (A549 NSCLC) was > 100 µM and the GI50 (LOX IMVI melanoma) was 0.0207 µM. For the same compound, the TGI (LOX IMVI melanoma) was > 100 µM, the GI50 (SNB-19 CNS) was 0.0405 µM and the TGI (SNB-19 CNS) was > 100 µM. For the same compound, the GI50 (NCI-H226 lung) was 10.9 µM, the TGI (NCI-H226 lung) was 57.3 µM and the GI50 (UO-31 renal) was 0.189 µM. For the same compound, the TGI (UO-31 renal) was 62.2 µM, the GI50 (NCI-H23 lung) was 0.0268 µM and the TGI (NCI-H23 lung) was > 100 µM. It also gave a GI50 (MDA-MB-231 breast) of 0.0551 µM, a TGI (MDA-MB-231 breast) of 34.8 µM and a GI50 (MOLT-4 leukemia) of 0.0449 µM. The TGI (MOLT-4 leukemia) was > 100 µM, the GI50 (SK-MEL-5 melanoma) was < 0.01 µM and the TGI (SK-MEL-5 melanoma) was 0.391 µM. The GI50 (HS 578T breast) was 0.0148 µM, the TGI (HS 578T breast) was > 100 µM and the GI50 (HCC-2998 colon) was 0.0276 µM. The TGI (HCC-2998 colon) was > 100 µM, the GI50 (CCRF-CEM leukemia) was 0.0307 µM and the TGI (CCRF-CEM leukemia) was > 100 µM. The GI50 (HT29 colon) was < 0.01 µM, the TGI (HT29 colon) was 14.2 µM and the GI50 (SF-539 CNS) was < 0.01 µM. It also gave a TGI (SF-539 CNS) of 15.2 µM.
